In the experiment the target is T1, human recombinant ROCK II (Homo sapiens, UniProt O75116).
T1 construct: recombinant human ROCK-II residues 11-552; His6 (N); purchased Millipore GmbH, Schwalbach, Germany
Kind of experiment: Determination of Rho Kinase Inhibition (ROCK II, Caliper peptide phosphorylation assay). The format is biochemical. Particulars: tested in the form (salt or free base) obtained in the examples. As for the experimental part: Determination of Rho Kinase Inhibition To measure Rho-kinase inhibition, IC50 values were determined according to the following protocol: Active human recombinant ROCK II (N-terminal His6-tagged recombinant human ROCK-II residues 11-552) was purchased from Millipore GmbH, Schwalbach, Germany. The peptide substrate, Fluorescein-AKRRRLSSLRA-COOH, was obtained from JPT Peptide Technologies, Berlin, Germany. Adenosine-5′-triphosphate (ATP), bovine serum albumine (BSA), dimethylsulphoxide (DMSO), 4-(2-hydroxyethyl)piperazine-1-ethanesulfonic acid (Hepes), Brij-35, dithiothreitol (DTT) and Pluronic F-68 were purchased from Sigma-Aldrich, Munich, Germany. Tris(hydroxymethyl)-aminomethane (Tris), magnesium chloride, NaOH, 1M HCl and EDTA were obtained from Merck Biosciences, Darmstadt, Germany. “Complete” protease inhibitor was from Roche Diagnostics, Mannheim, Germany. Test compounds were diluted to the appropriate concentrations in buffer 1 (25 mM Tris-HCl, pH 7.4, 5 mM MgCl2, 2 mM DTT, 0.02% (w/v) BSA, 0.01% Pluronic F-68 and 3% DMSO). The ROCK II enzyme was diluted to a concentration of 100 ng/ml in buffer 2 (25 mM Tris-HCl, pH 7.4, 5 mM MgCl2, 2 mM DTT and 0.02% (w/v) BSA). The peptide substrate and ATP were diluted to concentrations of 3 μM and 120 μM, respectively, in the buffer 2. Two μl of the compound solution were mixed with 2 μl of the diluted enzyme in a 384-well small volume microtiter plate (Greiner, Bio-One, Frickenhausen, Germany), and the kinase reaction was initiated by addition of 2 μl of the solution containing peptide substrate and ATP. After 60 min incubation at 32° C., the reaction was stopped by addition of 20 μl of a solution containing 100 mM Hepes-NaOH, pH 7.4, 0.015% (v/v) Brij-35, 45 mM EDTA and 0.227% chip coating reagent 1 (Caliper Lifescience Inc, Hopkinton, Mass.). Phosphorylation of the substrate peptide was then detected on a Caliper 3000 instrument essentially as described by Pommereau et al (J. Biomol. Screening 2004, 9(5), 409-416). Separation conditions were as follows: Pressure −1.3 psi, upstream voltage −1562 V, downstream voltage −500 V, sample sip time 200 ms. Positive controls (buffer 1 instead of compound) and negative controls (buffer 1 instead of compound and buffer 2 instead of ROCK II) were run in parallel on each plate. The following products/compounds were tested in said assay by using the respective form (salt or free base) obtained as in the examples described above and the following activities were measured

Each structure is given as a SMILES string.

This note sets out measurements from patent publication US8524737B2, “Bi- and polycyclic substituted isoquinoline and isoquinolinone derivatives” (Sanofi, priority 2008, dated 2013).

One may read the IC50 as the concentration at which inhibition is half-maximal.

T1 sequence (O75116 11-552): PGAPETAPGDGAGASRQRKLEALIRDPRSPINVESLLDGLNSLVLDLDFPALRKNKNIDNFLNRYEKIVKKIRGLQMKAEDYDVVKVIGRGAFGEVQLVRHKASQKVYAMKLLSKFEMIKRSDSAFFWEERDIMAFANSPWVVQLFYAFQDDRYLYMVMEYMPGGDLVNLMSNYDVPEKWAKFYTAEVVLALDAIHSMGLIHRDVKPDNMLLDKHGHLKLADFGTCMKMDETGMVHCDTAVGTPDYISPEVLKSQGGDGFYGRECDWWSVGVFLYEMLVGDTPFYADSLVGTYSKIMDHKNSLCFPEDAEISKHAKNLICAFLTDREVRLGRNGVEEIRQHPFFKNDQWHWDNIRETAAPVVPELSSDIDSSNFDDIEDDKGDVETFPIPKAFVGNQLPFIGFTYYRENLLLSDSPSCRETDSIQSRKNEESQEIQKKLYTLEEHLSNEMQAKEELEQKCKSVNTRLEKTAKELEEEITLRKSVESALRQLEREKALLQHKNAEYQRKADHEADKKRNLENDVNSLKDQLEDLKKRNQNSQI

As to `CCCC1(N)C2CC3CC1CC(Oc1cc4cc[nH]c(=O)c4cc1Cl)(C3)C2` (single isomer, unassigned) [Example 6, 6-(4-Amino-4-propyl-adamantan-1-yloxy)-7-chloro-2H-isoquinolin-1-one], the IC50 was 100 to 1000 nM.
In the case of `CC1(N)C2CC3CC1CC(Oc1cc4cc[nH]c(=O)c4cc1Cl)(C3)C2` (single isomer, unassigned) [Example 8, 6-(4-Amino-4-methyl-adamantan-1-yloxy)-7-chloro-2H-isoquinolin-1-one], the IC50 was 10 to 100 nM.
As to `CCCC1(N)C2CC3CC1CC(Oc1cc4cc[nH]c(=O)c4cc1Cl)(C3)C2` (single isomer, unassigned) [Example 5, 6-(4-Amino-4-propyl-adamantan-1-yloxy)-7-chloro-2H-isoquinolin-1-one], the IC50 was 10 to 100 nM.
On the same count and under the same terms, the same measure for `O=c1[nH]ccc2cc(O[C@H]3CC[C@@]4(CCCN4)CC3)c(Cl)cc12` [Example 22, 6-(1-Aza-spiro[4.5]dec-8-yloxy)-7-chloro-2H-isoquinolin-1-one]: 10 to 100 nM.
For `N[C@H]1C[C@H]2CSC[C@@H](C1)[C@H]2Oc1cc2cc[nH]c(=O)c2cc1Cl` [Example 19, 6-{[(7-Endo,9-anti)-7-amino-3-thiabicyclo[3.3.1]non-9-yl]oxy}-7-chloroisoquinolin-1(2H)-one], the IC50 was 10 to 100 nM.
Still for that read-out and setting: the same measure for `N[C@]12CC3CC(C1)[C@@H](Oc1cc4cc[nH]c(=O)c4cc1Cl)C(C3)C2` (single isomer, unassigned) [Example 15, Trans-6-(5-Amino-adamantan-2-yloxy)-7-chloro-2H-isoquinolin-1-one]: no more than 10 nM; for `O=c1[nH]ccc2cc(OC34CC5CC(C3)C(NCc3ccccc3)C(C5)C4)c(Cl)cc12` (single isomer, unassigned) [Example 12, 6-(4-Benzylamino-adamantan-1-yloxy)-7-chloro-2H-isoquinolin-1-one]: 100 to 1000 nM.
Same read-out and setting: the figure for `N[C@]12CC3CC(C1)[C@H](Oc1cc4cc[nH]c(=O)c4cc1Cl)C(C3)C2` (single isomer, unassigned) [Example 14, Cis-6-(5-Amino-adamantan-2-yloxy)-7-chloro-2H-isoquinolin-1-one] is no more than 10 nM; for `N[C@H]1C[C@H]2COC[C@@H](C1)[C@H]2Oc1cc2cc[nH]c(=O)c2cc1Cl` [Example 17, 6-{[(7-Endo,9-anti)-7-amino-3-oxabicyclo[3.3.1]non-9-yl]oxy}-7-chloroisoquinolin-1(2H)-one] it is 10 to 100 nM; for `C=CCC1(N)C2CC3CC1CC(Oc1cc4cc[nH]c(=O)c4cc1Cl)(C3)C2` (single isomer, unassigned) [Example 4, 6-(4-Allyl-4-amino-adamantan-1-yloxy)-7-chloro-2H-isoquinolin-1-one] it is 100 to 1000 nM.
Take `NC1(C2CC2)C2CC3CC1CC(Oc1cc4cc[nH]c(=O)c4cc1Cl)(C3)C2` (single isomer, unassigned) [Example 11, 6-(4-Amino-4-cyclopropyl-adamantan-1-yloxy)-7-chloro-2H-isoquinolin-1-one]: the IC50 was 10 to 100 nM.
In the case of `N[C@H]1C[C@H]2CSC[C@@H](C1)[C@@H]2Oc1cc2cc[nH]c(=O)c2cc1Cl` [Example 20, 6-{[(7-endo,9-syn)-7-amino-3-thiabicyclo[3.3.1]non-9-yl]oxy}-7-chloroisoquinolin-1(2H)-one], the 50% inhibitory concentration (IC50) was 10 to 100 nM.
With `NC1(c2ccccc2)C2CC3CC1CC(Oc1cc4cc[nH]c(=O)c4cc1Cl)(C3)C2` (single isomer, unassigned) [Example 9, 6-(4-Amino-4-phenyl-adamantan-1-yloxy)-7-chloro-2H-isoquinolin-1-one], the half-inhibitory concentration (IC50) was 100 to 1000 nM.
For `Cc1cc2c(=O)[nH]ccc2cc1OC1C2CC3CC1CC(N)(C3)C2` (single isomer, unassigned) [Example 16, 6-(5-Amino-adamantan-2-yloxy)-7-methyl-2H-isoquinolin-1-one], the pIC50 result is “+++++++ (8.0≦pIC50)”.
Take `NC12C[C@H]3C[C@@H](C1)CC(Oc1cc4cc[nH]c(=O)c4cc1Cl)(C3)C2` [Example 13, 6-(3-Amino-adamantan-1-yloxy)-7-chloro-2H-isoquinolin-1-one]: the IC50 was 100 to 1000 nM.
As for `NC1C2CC3CC1CC(Oc1cc4cc[nH]c(=O)c4cc1Cl)(C3)C2` (single isomer, unassigned) [Example 1, 6-(4-Amino-adamantan-1-yloxy)-7-chloro-2H-isoquinolin-1-one], the IC50 was 10 to 100 nM.
For `N[C@H]1C[C@H]2COC[C@@H](C1)[C@@H]2Oc1cc2cc[nH]c(=O)c2cc1Cl` [Example 18, 6-{[(7-endo,9-syn)-7-amino-3-oxabicyclo[3.3.1]non-9-yl]oxy}-7-chloroisoquinolin-1(2H)-one], the IC50 is 10 to 100 nM.
For `C=CCC1(N)C2CC3CC1CC(Oc1cc4cc[nH]c(=O)c4cc1Cl)(C3)C2` (single isomer, unassigned) [Example 3, 6-(4-Allyl-4-amino-adamantan-1-yloxy)-7-chloro-2H-isoquinolin-1-one], the concentration for half-maximal inhibition (IC50) is 10 to 100 nM.
